This is an account of results in patent US12467068B2, “Process for the production and recovery of bio-surfactant from Bacillus sp. MCC0156” (COUNCIL OF SCIENTIFIC & INDUSTRIAL RESEARCH, priority 2019, dated 2025).

Data set [1] in a line: Surfactant properties of purified compounds (oil dispersion, surface tension, emulsification). The note with it: purified compound. The format is physicochemical. As for the experimental part: The purified compounds from the crude biosurfactants were analyzed for oil dispersion (OD), surface tension and emulsification activities using the standard protocols as mentioned in methodology. […] The low CMC value 0.3 mg/ml for crude biosurfactant results from mixture of compounds in compare to purified single compound.

The subject of a further data set is Artemia salina. As to the kind of experiment: Toxicity on microcrustacean Artemia salina (mortality after 24 h). The class given is in vivo. The note with it: 24 h at 28 °C, artificial sea water. As for the experimental part:
The toxicity of bio-surfactants on microcrustacean Artemia salina was performed in artificial sea water with 30 g/L (w/v) NaCl. Different concentrations like, 10 μg/ml, 100 μg/ml and 1000 μg/ml of crude bio-surfactant and purified compound-1 was supplemented in artificial sea salt solution (pH 8.0) and inoculated with 20 numbers of micro-crustacean A. salina in 10 ml per tube of solution and incubated for 24 h at 28° C. under artificial light condition.
The toxicity of bio-surfactants was determined by calculating the mortality rate against the control (in triplicate) after 24 h incubation. The effect of biosurfactants on the microorganisms was studied in minimal salt medium (MSM) to determine the utilization or degradation pattern of bio-surfactant in presence of Pseudomonas aeruginosa NCIM 2037, Arthrobacter sp NCIM 5452 and Rhodococcus sp NCIM 5488. The minimal salt medium was supplemented with 100 ppm of crude biosurfactant and inoculated with all three strains and incubated at 30° C., 150 rpm for 72 h. Effect of biosurfactants on growth of test strains were determined through measuring the optical density at 620 nm after incubation of 72 h.

Details of data set [2]: Surface tension reduced to: unit not given here. The note with it: cited from earlier work.

In turn, `C=CCCCCCCCCCCCCCCCCCCCCCCCCCCCCCCCCCCCCCCCCCCCCCCCCCCCCCCCCCCCCCCCCCCCCCCCCCCCCCCCCCCCCCCCCCCCCC` [compound-1, 1-Pentanonacontene] registered an E24 for n-hexane in data set [1] of 40%. Besides, in data set [1], the Oil dispersion efficiency turned out to be 93.75%. Moreover, the “Surface tension of distilled water decreased to” value in data set [1] (distilled water 71.41±0.069 mN/m) worked out at 28.53±0.02 mN/m. In addition, the Mortality in the data set on Artemia salina (10 μg/ml) was found to be 59%; in the data set on Artemia salina (100 μg/ml), 61%; with Artemia salina (1000 ug/ml), 68%.
For the molecule `CC(C)CCCCCCCCCCCCC(O)CC(=O)O` (stereo not drawn) [compound-2, 3-Hydroxy-16-methylheptadecanoic acid], the “Surface properties (oil dispersion, surface tension, emulsification activity)” value in data set [1] is given as “not active”.
For the molecule Aneurinifactin, the “Surface tension reduced to” value in data set [2] (reported biosurfactant) is given as 26. Besides, in data set [2] (reported biosurfactants), the CMC value was 0.026 mg/mL.
